Source: the Kinase Knowledgebase extract (Sharma et al. 2016)

Each compound was assayed against PIK3CG (human) (UniProt P48736) (assay: Inhibition of PIK3CG Kinase Activity).
Sequence of PIK3CG (human) (P48736 whole entry, looked up): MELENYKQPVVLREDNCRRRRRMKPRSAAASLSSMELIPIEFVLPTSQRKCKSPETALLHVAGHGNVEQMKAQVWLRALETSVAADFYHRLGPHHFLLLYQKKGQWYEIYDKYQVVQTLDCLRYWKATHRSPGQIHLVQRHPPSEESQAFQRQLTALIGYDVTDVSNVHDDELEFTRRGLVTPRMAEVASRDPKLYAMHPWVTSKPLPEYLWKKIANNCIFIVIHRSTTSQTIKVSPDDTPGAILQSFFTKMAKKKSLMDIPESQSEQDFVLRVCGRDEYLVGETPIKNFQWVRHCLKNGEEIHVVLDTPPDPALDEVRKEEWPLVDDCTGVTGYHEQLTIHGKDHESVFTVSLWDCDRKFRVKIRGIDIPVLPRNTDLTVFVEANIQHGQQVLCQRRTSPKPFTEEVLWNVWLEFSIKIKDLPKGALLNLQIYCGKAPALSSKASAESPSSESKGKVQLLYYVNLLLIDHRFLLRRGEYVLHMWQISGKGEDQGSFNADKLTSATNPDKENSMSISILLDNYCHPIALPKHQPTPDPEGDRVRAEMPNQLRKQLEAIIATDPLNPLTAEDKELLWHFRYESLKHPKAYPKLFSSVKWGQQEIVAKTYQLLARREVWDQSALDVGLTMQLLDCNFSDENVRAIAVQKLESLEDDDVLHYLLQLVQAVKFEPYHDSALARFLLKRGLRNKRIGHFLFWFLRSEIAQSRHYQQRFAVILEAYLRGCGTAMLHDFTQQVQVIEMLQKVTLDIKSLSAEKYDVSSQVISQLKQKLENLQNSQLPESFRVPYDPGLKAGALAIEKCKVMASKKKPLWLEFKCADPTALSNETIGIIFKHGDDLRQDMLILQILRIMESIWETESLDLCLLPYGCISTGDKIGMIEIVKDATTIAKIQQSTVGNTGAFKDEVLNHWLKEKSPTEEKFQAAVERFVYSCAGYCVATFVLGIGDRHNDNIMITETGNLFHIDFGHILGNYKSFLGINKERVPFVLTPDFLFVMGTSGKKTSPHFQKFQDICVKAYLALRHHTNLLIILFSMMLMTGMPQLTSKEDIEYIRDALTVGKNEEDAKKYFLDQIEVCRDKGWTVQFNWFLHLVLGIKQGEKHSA

SMILES	IC50 [nM]
CC(=O)Nc1nc2c(s1)-c1c(c(C3CC3)nn1-c1ccc(C(=O)N3CCC(N4CCCC4)CC3)c(Cl)c1)CC2	< 600
CC(=O)Nc1nc2c(s1)-c1c(c(C3CC3)nn1-c1ccc(C(=O)N[C@H]3CC[C@@H](N(C)CC4CCCC4)CC3)c(Cl)c1)CC2	< 600
CC(=O)Nc1nc2c(s1)-c1c(c(C3CC3)nn1-c1ccc(C(=O)N[C@H]3CC[C@@H](C(N)=O)CC3)cc1Cl)CC2	< 600
CC(=O)Nc1nc2c(s1)-c1c(c(C3CC3)nn1-c1ccc(C(=O)N[C@@H]3CCN(C4CCCCC4)C3)c(F)c1)CC2	< 600
CC(=O)Nc1nc2c(s1)-c1c(c(C3CC3)nn1-c1ccc(C(=O)N(C)[C@H]3CC[C@@H](N4CCCC4)CC3)cc1F)CC2	< 600
CC(=O)Nc1nc2c(s1)-c1c(c(C3CC3)nn1-c1ccc(C(=O)N(C)[C@H]3CCN(C4CCCCC4)C3)cc1C)CC2	< 600
CC(=O)Nc1nc2c(s1)-c1c(c(C3CC3)nn1-c1ccc(C(=O)NC3CCN(C4CCCC4)CC3)cc1C)CC2	< 600
CC(=O)Nc1nc2c(s1)-c1c(c(C3CC3)nn1-c1ccc(C(=O)N[C@H]3CC[C@@H](N4CCCCC4)CC3)c(C)c1)CC2	< 600
CC(=O)Nc1nc2c(s1)-c1c(c(C3CC3)nn1-c1ccc(C(=O)N[C@H]3CC[C@@H](N4CCCC4)CC3)cc1C)CC2	< 600
CC(=O)Nc1nc2c(s1)-c1c(c(C3CC3)nn1-c1ccc(C(=O)N(C)[C@H]3CC[C@@H](N(C)CC4CCCC4)CC3)cc1Cl)CC2	< 600
CC(=O)Nc1nc2c(s1)-c1c(c(C3CC3)nn1-c1ccc(C(=O)N[C@H]3CC[C@@H](N4CCCCC4)CC3)cc1C)CC2	< 600
CCCCN1CCN(C(=O)N2CCC(n3nc(C4CC4)c4c3-c3sc(NC(C)=O)nc3CC4)CC2)CC1	< 600
CC(=O)Nc1nc2c(s1)-c1c(c(C3CC3)nn1-c1ccc(C(=O)N[C@@H]3CCN(C4CCCC4)C3)c(Cl)c1)CC2	< 600
CCCN1CC[C@@H](NC(=O)c2ccc(-n3nc(C4CC4)c4c3-c3sc(NC(C)=O)nc3CC4)c(Cl)c2)C1	< 600
CC(=O)Nc1nc2c(s1)-c1c(c(C3CC3)nn1-c1ccccc1Br)CC2	< 600
CC(=O)Nc1nc2c(s1)-c1c(c(C3CC3)nn1C1CCN(C(=O)[C@H]3CC[C@@H](N4CCCC4)CC3)CC1)CC2	< 600
CC(=O)Nc1nc2c(s1)-c1c(c(C3CCC3)nn1-c1ccc(C(=O)NC3CCN(C4CCCC4)CC3)cc1Cl)CC2	< 600
CC(=O)Nc1nc2c(s1)-c1c(c(C3CC3)nn1-c1ccc(C(=O)N[C@H]3CC[C@@H](N4CCOCC4)CC3)cc1F)CC2	< 600
CC(=O)Nc1nc2c(s1)-c1c(c(C3CC3)nn1-c1ccc(C(=O)NC3CCN(C4CCCC4)CC3)cc1F)CC2	< 600
CC(=O)Nc1nc2c(s1)-c1c(c(C3CC3)nn1C1CCN(C(=O)N3CCC(N4CCCC4)CC3)CC1)CC2	< 600
CC(=O)Nc1nc2c(s1)-c1c(c(C3CC3)nn1-c1ccc(C(=O)NC3CCN(CC4CCCCC4)CC3)cc1Cl)CC2	< 600
CC(=O)Nc1nc2c(s1)-c1c(c(C3(C)CC3)nn1-c1ccc(C(=O)NC3CCN(CC4CCCC4)CC3)cc1Cl)CC2	< 600
CC(=O)Nc1nc2c(s1)-c1c(c(C3CC3)nn1-c1ccc(C(=O)N[C@H]3CN4CCC3CC4)c(Cl)c1)CC2	< 600
CNC(=O)c1ccc(-n2nc(C3(C)CC3)c3c2-c2sc(NC(C)=O)nc2CC3)c(Cl)c1	< 600

Now from value to compound:

IC50 [nM]	SMILES
< 600	CC(=O)Nc1nc2c(s1)-c1c(c(C3CC3)nn1-c1ccc(C(=O)N(C)C3CCC(N4CCCC4)CC3)cc1Cl)CC2 (stereo not drawn)
< 600	COc1cc(-n2nc(C3CC3)c3c2-c2sc(NC(C)=O)nc2CC3)ccc1C(=O)N(C)C1CCC(N2CCCC2)CC1 (stereo not drawn)
< 600	CC(=O)Nc1nc2c(s1)-c1c(c(C3CC3)nn1-c1ccc(C(=O)N(C)[C@H]3CC[C@@H](N4CCCCC4)CC3)cc1Cl)CC2
< 600	CNc1ccc(-n2nc(C3CC3)c3c2-c2sc(NC(C)=O)nc2CC3)c(Cl)c1
< 600	CC(=O)Nc1nc2c(s1)-c1c(c(C3CC3)nn1-c1ccc(N(C)C(=O)[C@H]3CC[C@@H](N4CCCC4)CC3)cc1Cl)CC2
< 600	CC(=O)Nc1nc2c(s1)-c1c(c(C3CC3)nn1-c1ccc(C(=O)N3CCC(CN4CCCC4)CC3)c(Cl)c1)CC2
< 600	CCCN1CCC(NC(=O)c2ccc(-n3nc(C4CCCC4)c4c3-c3sc(NC(C)=O)nc3CC4)c(Cl)c2)CC1
< 600	CC(=O)Nc1nc2c(s1)-c1c(c(C3CC3)nn1-c1ccc(C(=O)N[C@@H]3CCN(C4CCCC4)C3)c(C)c1)CC2
< 600	CC(=O)Nc1nc2c(s1)-c1c(c(C3CC3)nn1-c1ccc(C(=O)N3CCN(C4CCCC4)CC3)c(Cl)c1)CC2
< 600	CC(=O)Nc1nc2c(s1)-c1c(c(C3CC3)nn1-c1ccc(C(=O)N(C)[C@H]3CC[C@@H](N4CCCC4)CC3)c(Cl)c1)CC2
< 600	CC(=O)Nc1nc2c(s1)-c1c(c(C3CC3)nn1-c1ccc(C(=O)NC[C@@H]3CCN(C4CCCC4)C3)c(Cl)c1)CC2
< 600	CCCN1CCC(C(=O)Nc2ccc(-n3nc(C4CC4)c4c3-c3sc(NC(C)=O)nc3CC4)c(Cl)c2)CC1
< 600	CC(=O)Nc1nc2c(s1)-c1c(c(C3CC3)nn1-c1ccc(C(=O)N(C)[C@H]3CC[C@@H](N(C)CC4CC4)CC3)cc1C)CC2
< 600	CC(=O)Nc1nc2c(s1)-c1c(c(C3CC3)nn1-c1ccc(C(=O)NC[C@H]3CCN(CC4CCCC4)C3)c(Cl)c1)CC2
< 600	CC(=O)Nc1nc2c(s1)-c1c(c(C3CC3)nn1-c1ccc(C(=O)N[C@H]3CC[C@@H](N4CCCCC4)CC3)cc1Cl)CC2
< 600	CCCN1CCC(C(=O)N(C)c2ccc(-n3nc(C4CC4)c4c3-c3sc(NC(C)=O)nc3CC4)c(Cl)c2)CC1
< 600	CC(=O)Nc1nc2c(s1)-c1c(c(C3CC3)nn1-c1ccc(C(=O)N[C@@H]3CCN(CC4CCCC4)C3)c(Cl)c1)CC2
< 600	CC(=O)Nc1nc2c(s1)-c1c(c(C3CC3)nn1-c1ccc(C(=O)N(C)[C@@H]3CCN(C4CCCC4)C3)c(F)c1)CC2
< 600	CC(=O)Nc1nc2c(s1)-c1c(c(C3CCC3)nn1-c1ccc(C(=O)NC3CCN(CC4CCCC4)CC3)cc1Cl)CC2
< 600	CC(=O)Nc1nc2c(s1)-c1c(c(C3CC3)nn1-c1ccc(C(=O)N(C)[C@@H]3CCN(CC4CCCC4)C3)cc1Cl)CC2
< 600	CC(=O)Nc1nc2c(s1)-c1c(c(C3CCC3)nn1-c1ccc(C(=O)N[C@H]3CC[C@@H](N4CCCC4)CC3)cc1Cl)CC2
< 600	CC(=O)Nc1nc2c(s1)-c1c(c(C3CC3)nn1-c1ccc(C(=O)NCC3CCN(CC4CCCC4)CC3)cc1Cl)CC2
< 600	CC(=O)Nc1nc2c(s1)-c1c(c(C3CCCC3)nn1-c1ccc(C(=O)NC3CCN(C4CCOCC4)CC3)cc1Cl)CC2
< 600	CC(=O)Nc1nc2c(s1)-c1c(c(C3CC3)nn1-c1ccccc1C)CC2
< 600	CCCN1CCC(NC(=O)C2CCC(n3nc(C4CC4)c4c3-c3sc(NC(C)=O)nc3CC4)CC2)CC1 (stereo not drawn)
< 600	CC(=O)Nc1nc2c(s1)-c1c(c(C3(C)CC3)nn1-c1ccc(C(=O)NC3CCN(C4CCOCC4)CC3)cc1Cl)CC2
< 600	CC(=O)Nc1nc2c(s1)-c1c(c(C3CC3)nn1-c1ccc(C(=O)N[C@H]3CCN(C4CCCC4)C3)c(Cl)c1)CC2
< 600	CC(=O)Nc1nc2c(s1)-c1c(c(C3CCC3)nn1-c1ccccc1Cl)CC2
< 600	CC(=O)Nc1nc2c(s1)-c1c(c(C3CC3)nn1C1CCN(C(=O)C3CCCCC3)CC1)CC2
